Laboratory results as given in publication PMC12056667 (Chemical Science, 2025).

Key:
[1] = system: Salmonella enterica T-2a – tet(X4); assay: microbe, parasite or virus in culture; format: cell-based; details: for MIC: Salmonella enterica, read-out: Tet(X) Inhibitor MIC; for Combination (Antibiotic/Inhibitor) MICs: inhibitor / Combination (Antibiotic/Inhibitor) MICs: antibiotic: lowest FICI
Protocol: (§1) MIC tests and checkerboard assays were performed in U-bottom, 96-well microtiter plates using a modified broth microdilution protocol following CLSI guidelines. Cation-adjusted Mueller-Hinton Broth (CAMHB) was prepared fresh on the day of testing.[74] In brief, assays were set up in a total volume of 100 μL per well and titrations comprised seven 2-fold dilutions of inhibitors and ten 2-fold dilutions of tigecycline in CAMHB. Bacterial colonies were selected from an overnight culture on MHA plates (supplemented with 0.2%w/vL-arabinose for E. coli TOP10 containing pBAD-TOPO-Tet(X4)) and were suspended in 0.9% saline solution to achieve a 0.5 McFarland standard. A 100 μL aliquot of this suspension was then diluted into 9.9 mL of CAMHB to yield approximately 1.5 × 10^6 cfu mL^−1. 50 μL of the suspension was then added to each well of a microtiter plates. Plates were incubated at 37 °C for 18 h. At least 2 replicates were conducted for each combination. E. coli TOP10 + pBAD-TOPO-Tet(X4) cells were grown in the absence and presence of 0.2%w/vL-arabinose. Analysis of the MIC and checkerboard results were carried out by visual inspection of growth, with and without resazurin dye, an oxidation–reduction indicator.[75] As a measure of synergy, fractional inhibitory concentration index (FICI) was calculated as FICA + FICB, where FICA and FICB are the MICcombination/MICalone for each agent, respectively.[76] Results were interpreted as follows: synergistic (<0.5), indifferent (1.0–4.0) or antagonistic (>4.0).[64] In cases where the MIC exceeded or was below the measured range, the borderline value was taken to calculate the FIC index.

Tet(X4) = Tet(X4) (Escherichia coli, UniProt A0A3T0V9Y5); assay: biochemical; details: 20 μM tigecycline, 50 nM Tet(X4), 100 μM NADPH, 5 mM MgCl2, 1 μM FAD, 100 mM TAPS pH 8.5; read-out: IC50, UPLC assay
Outline: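 Endpoint turnover assay: 100 nM Tet(X4) with […] and 10 mM MgCl2 in 100 mM TAPS pH 8.5, preincubated with inhibitor 15 min at 30 °C, then 40 μM tigecycline plus 200 μM NADPH added […] for 20 min at 30 °C.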

[2] = system: Escherichia coli T-24a – tet(X4); assay: microbe, parasite or virus in culture; format: cell-based; details: for MIC: Escherichia coli, read-out: Tet(X) Inhibitor MIC, alone; for Combination (Antibiotic/Inhibitor) MICs: inhibitor / Combination (Antibiotic/Inhibitor) MICs: antibiotic: lowest FICI
Protocol: as §1, with “In brief, assays were set up in a total volume of 100 μL per well and titrations comprised seven 2-fold dilutions of inhibitors and ten 2-fold dilutions of tigecycline in CAMHB.” left out

[3] = system: Proteus penneri NT6-2 – tet(X6); assay: microbe, parasite or virus in culture; format: cell-based; details: for MIC: Proteus penneri, read-out: Tet(X) Inhibitor MIC; for Combination (Antibiotic/Inhibitor) MICs: inhibitor / Combination (Antibiotic/Inhibitor) MICs: antibiotic: lowest FICI
Protocol: as §1, with “In brief, assays were set up in a total volume of 100 μL per well and titrations comprised seven 2-fold dilutions of inhibitors and ten 2-fold dilutions of tigecycline in CAMHB.” left out

[4] = system: Acinetobacter baumannii NT5-1 – tet(X5); assay: microbe, parasite or virus in culture; format: cell-based; details: for MIC: Acinetobacter baumannii, read-out: Tet(X) Inhibitor MIC; for Combination (Antibiotic/Inhibitor) MICs: inhibitor / Combination (Antibiotic/Inhibitor) MICs: antibiotic: lowest FICI
Protocol: as §1, with “In brief, assays were set up in a total volume of 100 μL per well and titrations comprised seven 2-fold dilutions of inhibitors and ten 2-fold dilutions of tigecycline in CAMHB.” left out

[5] = inhibitor in combination with tigecycline
[6] = tigecycline in combination with the inhibitor

SMILES: CN1CCN(CCCN2c3ccccc3Sc3ccc(C(F)(F)F)cc32)CC1 [Trifluoperazine]
- MIC [1]: > 128 µg/mL
- Combination (Antibiotic/Inhibitor) MICs: inhibitor [1, 5]: 64 µg/mL
- Combination (Antibiotic/Inhibitor) MICs: antibiotic [1, 6]: 16 µg/mL
- FICI ([1]; with tigecycline): 1
- Outcome ([1]; with tigecycline): indifferent (indifferent (0.5-4.0))
- IC50 (Tet(X4)): 83.8 ± 21.4 µM
- MIC ([2]; E. coli T-24a): 256 µg/mL
- Combination (Antibiotic/Inhibitor) MICs: inhibitor [2, 5]: 32 µg/mL
- Combination (Antibiotic/Inhibitor) MICs: antibiotic [2, 6]: 8 µg/mL
- FICI ([2]; with tigecycline): 0.6
- Outcome ([2]; with tigecycline): indifferent (indifferent (0.5-4.0))
- MIC [3]: > 128 µg/mL
- Combination (Antibiotic/Inhibitor) MICs: inhibitor [3, 5]: 128 µg/mL
- Combination (Antibiotic/Inhibitor) MICs: antibiotic [3, 6]: 4 µg/mL
- FICI ([3]; with tigecycline): 1.5
- Outcome ([3]; with tigecycline): indifferent (indifferent (0.5-4.0))
- MIC [4]: 128 µg/mL
- Combination (Antibiotic/Inhibitor) MICs: inhibitor [4, 5]: 64 µg/mL
- Combination (Antibiotic/Inhibitor) MICs: antibiotic [4, 6]: 1 µg/mL
- FICI ([4]; with tigecycline): 0.6
- Outcome ([4]; with tigecycline): indifferent (indifferent (0.5-4.0))

SMILES: O=C(c1ccc(OCCN2CCCCC2)cc1)c1c(-c2ccc(O)cc2)sc2cc(O)ccc12 [Raloxifene]
- MIC [1]: > 128 µg/mL
- Combination (Antibiotic/Inhibitor) MICs: inhibitor [1, 5]: 128 µg/mL
- Combination (Antibiotic/Inhibitor) MICs: antibiotic [1, 6]: 16 µg/mL
- FICI ([1]; with tigecycline): 1.5
- Outcome ([1]; with tigecycline): indifferent (indifferent (0.5-4.0))
- IC50 (Tet(X4)): 8.3 ± 2.1 µM
- MIC ([2]; E. coli T-24a): 256 µg/mL
- Combination (Antibiotic/Inhibitor) MICs: inhibitor [2, 5]: 128 µg/mL
- Combination (Antibiotic/Inhibitor) MICs: antibiotic [2, 6]: 8 µg/mL
- FICI ([2]; with tigecycline): 1
- Outcome ([2]; with tigecycline): indifferent (indifferent (0.5-4.0))
- MIC [3]: > 128 µg/mL
- Combination (Antibiotic/Inhibitor) MICs: inhibitor [3, 5]: > 128 µg/mL
- Combination (Antibiotic/Inhibitor) MICs: antibiotic [3, 6]: 8 µg/mL
- FICI ([3]; with tigecycline): 2
- Outcome ([3]; with tigecycline): indifferent (indifferent (0.5-4.0))
- MIC [4]: > 128 µg/mL
- Combination (Antibiotic/Inhibitor) MICs: inhibitor [4, 5]: 128 µg/mL
- Combination (Antibiotic/Inhibitor) MICs: antibiotic [4, 6]: 2 µg/mL
- FICI ([4]; with tigecycline): 1.3
- Outcome ([4]; with tigecycline): indifferent (indifferent (0.5-4.0))

SMILES: [H]/N=C(/NCCCCC)N/N=C/c1c[nH]c2ccc(OC)cc12 [Tegaserod]
- MIC [1]: 32 µg/mL
- Combination (Antibiotic/Inhibitor) MICs: antibiotic ([1]; doxycycline with tegaserod): 8 µg/mL
- Combination (Antibiotic/Inhibitor) MICs: inhibitor [1, 5]: 8 µg/mL
- Combination (Antibiotic/Inhibitor) MICs: inhibitor ([1]; tegaserod with doxycycline): 16 µg/mL
- Combination (Antibiotic/Inhibitor) MICs: inhibitor ([1]; tegaserod with tetracycline): 16 µg/mL
- Combination (Antibiotic/Inhibitor) MICs: antibiotic ([1]; tetracycline with tegaserod): 32 µg/mL
- Combination (Antibiotic/Inhibitor) MICs: antibiotic [1, 6]: 8 µg/mL
- FICI ([1]; with doxycycline): 0.8
- Outcome ([1]; with doxycycline): indifferent (indifferent (0.5-4.0))
- FICI ([1]; with tetracycline): 0.8
- Outcome ([1]; with tetracycline): indifferent (indifferent (0.5-4.0))
- FICI ([1]; with tigecycline): 0.5
- Outcome ([1]; with tigecycline): indifferent (indifferent (0.5-4.0))
- IC50 (Tet(X4)): 25.9 ± 2.4 µM
- MIC ([2]; E. coli T-24a): 16 µg/mL
- Tet(X) inhibitor MIC ([2]; alone, E. coli T-24a): 32 µg/mL
- Combination (Antibiotic/Inhibitor) MICs: antibiotic ([2]; doxycycline with tegaserod): 4 µg/mL
- Combination (Antibiotic/Inhibitor) MICs: inhibitor [2, 5]: 8 µg/mL
- Combination (Antibiotic/Inhibitor) MICs: inhibitor ([2]; tegaserod with doxycycline): 16 µg/mL
- Combination (Antibiotic/Inhibitor) MICs: inhibitor ([2]; tegaserod with tetracycline): 16 µg/mL
- Combination (Antibiotic/Inhibitor) MICs: antibiotic ([2]; tetracycline with tegaserod): 32 µg/mL
- Combination (Antibiotic/Inhibitor) MICs: antibiotic [2, 6]: 4 µg/mL
- FICI ([2]; with doxycycline): 0.6
- Outcome ([2]; with doxycycline): indifferent (indifferent (0.5-4.0))
- FICI ([2]; with tetracycline): 0.8
- Outcome ([2]; with tetracycline): indifferent (indifferent (0.5-4.0))
- FICI ([2]; with tigecycline): 0.8
- Outcome ([2]; with tigecycline): indifferent (indifferent (0.5-4.0))
- MIC [3]: 64 µg/mL
- Combination (Antibiotic/Inhibitor) MICs: antibiotic ([3]; doxycycline with tegaserod): 8 µg/mL
- Combination (Antibiotic/Inhibitor) MICs: inhibitor [3, 5]: 16 µg/mL
- Combination (Antibiotic/Inhibitor) MICs: inhibitor ([3]; tegaserod with doxycycline): 32 µg/mL
- Combination (Antibiotic/Inhibitor) MICs: inhibitor ([3]; tegaserod with tetracycline): 32 µg/mL
- Combination (Antibiotic/Inhibitor) MICs: antibiotic ([3]; tetracycline with tegaserod): 16 µg/mL
- Combination (Antibiotic/Inhibitor) MICs: antibiotic [3, 6]: 4 µg/mL
- FICI ([3]; with doxycycline): 1.0
- Outcome ([3]; with doxycycline): indifferent (indifferent (0.5-4.0))
- FICI ([3]; with tetracycline): 1.0
- Outcome ([3]; with tetracycline): indifferent (indifferent (0.5-4.0))
- FICI ([3]; with tigecycline): 0.8
- Outcome ([3]; with tigecycline): indifferent (indifferent (0.5-4.0))
- MIC [4]: 32 µg/mL
- Combination (Antibiotic/Inhibitor) MICs: antibiotic ([4]; doxycycline with tegaserod): 16 µg/mL
- Combination (Antibiotic/Inhibitor) MICs: inhibitor [4, 5]: 16 µg/mL
- Combination (Antibiotic/Inhibitor) MICs: inhibitor ([4]; tegaserod with doxycycline): 4 µg/mL
- Combination (Antibiotic/Inhibitor) MICs: inhibitor ([4]; tegaserod with tetracycline): 8 µg/mL
- Combination (Antibiotic/Inhibitor) MICs: antibiotic ([4]; tetracycline with tegaserod): 128 µg/mL
- Combination (Antibiotic/Inhibitor) MICs: antibiotic [4, 6]: 1 µg/mL
- FICI ([4]; with doxycycline): 0.6
- Outcome ([4]; with doxycycline): indifferent (indifferent (0.5-4.0))
- FICI ([4]; with tetracycline): 1.3
- Outcome ([4]; with tetracycline): indifferent (indifferent (0.5-4.0))
- FICI ([4]; with tigecycline): 0.6
- Outcome ([4]; with tigecycline): indifferent (indifferent (0.5-4.0))

SMILES: Cc1c2c(c(O)c3c(O)cccc13)C(=O)[C@]1(O)C(=O)C(C(N)=O)=C(O)[C@@H](N(C)C)[C@@H]1C2 [Anhydrotetracycline]
- MIC [1]: 32 µg/mL
- Combination (Antibiotic/Inhibitor) MICs: inhibitor [1, 5]: 16 µg/mL
- Combination (Antibiotic/Inhibitor) MICs: antibiotic [1, 6]: 8 µg/mL
- FICI ([1]; with tigecycline): 0.8
- Outcome ([1]; with tigecycline): indifferent (indifferent (0.5-4.0))
- IC50 (Tet(X4)): 2.6 ± 0.3 µM
- MIC ([2]; E. coli T-24a): 64 µg/mL
- Combination (Antibiotic/Inhibitor) MICs: inhibitor [2, 5]: 32 µg/mL
- Combination (Antibiotic/Inhibitor) MICs: antibiotic [2, 6]: 4 µg/mL
- FICI ([2]; with tigecycline): 0.8
- Outcome ([2]; with tigecycline): indifferent (indifferent (0.5-4.0))
- MIC [3]: 4 µg/mL
- Combination (Antibiotic/Inhibitor) MICs: inhibitor [3, 5]: 1 µg/mL
- Combination (Antibiotic/Inhibitor) MICs: antibiotic [3, 6]: 4 µg/mL
- FICI ([3]; with tigecycline): 0.8
- Outcome ([3]; with tigecycline): indifferent (indifferent (0.5-4.0))
- MIC [4]: 16 µg/mL
- Combination (Antibiotic/Inhibitor) MICs: inhibitor [4, 5]: 4 µg/mL
- Combination (Antibiotic/Inhibitor) MICs: antibiotic [4, 6]: 2 µg/mL
- FICI ([4]; with tigecycline): 0.5
- Outcome ([4]; with tigecycline): indifferent (indifferent (0.5-4.0))
